The text below walks through data of patent US6713459B1, “Methods for the prophylactic and therapeutic treatment of cardiac tissue damage” (East Tennessee State University, priority 2000, dated 2004).

Read-outs that look alike come from different tables or passages of the source.

Test [1] relates to ICR/HSD mice subjected to CLP (polymicrobial sepsis). Put plainly: survival of mice with polymicrobial sepsis induced by CLP. The note with it: for long-term survival rate: CLP control 20%. It is filed as in vivo. How it is done:
(§1) In studies of (1→3)-β-D-glucan effects on tissue damage due to sepsis, blood (˜0.3 ml) was obtained by open heart puncture from groups of 3 ICR/HSD mice subjected to cecal ligation and puncture (CLP), performed according to the method of Baker et al., Suryery (1983) 94: 331-335, as described by Ayala et al., Circ. Shock (1992) 36: 191-199. Mice subjected to laparotomy only (LO) served as surgical and anesthesia controls. Negative controls were not subjected to either procedure. Blood samples were collected from each group at 1, 2, 4, 8, and 24 hours after surgery. Samples were inoculated into prereduced anaerobically sterilized chopped meat carbohydrate broth (Carr-Scarborough, Stone Mountain, Ga.) under a constant stream of anaerobic carbon dioxide in a VPI Inoculator (Bellco Glass, Vineland, N.J.). After mixing, 1 ml of inoculated broth was aseptically removed from each 6-ml rubber-stoppered anaerobic tube into a sterile loose-capped aerobic culture tube. Both aerobic and anaerobic culture tubes were incubated at 37° C. for 72 hours.
(§2) In pretreatment protocols, 45 mice were randomly divided into 3 groups of 15 mice per group. Group 1 received isovolumetric saline solution intraperitoneally 1 hour before CLP. Group 2 received glucan phosphate (1 mg/mouse=50 mg/kg, intraperitoneally) 1 hour prior to CLP. Group 3 received scleroglucan (1 mg/mouse=50 mg/kg, intraperitoneally) 1 hour prior to CLP. To assess tissue transcription factor activation and cytokine messenger RNA (mRNA) levels, liver and lung tissue were harvested from 5 mice per group at 3 hours after surgery. […] Laparoscopy-only (LO) controls and negative controls received the same saline, glucan phosphate, and scleroglucan treatment as CLP mice.
In post-treatment protocols, 30 mice were subjected to CLP. These 30 mice were then randomly divided into 2 groups of 15 mice per group. […]
(§3) Survival trends were compared with the Cox proportional hazard and log-rank procedures. […] Differences in bacteremia between LO and CLP groups were assessed with exact probability level determinations. […]

In another test the test system is NF-IL6. Put plainly: EMSA of NF-IL6 nuclear binding activity in liver and lung after CLP. It is filed as in vivo, ICR/HSD mice. The note with it: for decrease of liver NF-IL6 binding activity / decrease of lung NF-IL6 binding activity: tissue 3 hours after CLP. How it is done: (§4) Nuclear extracts were prepared by homogenizing tissue in hypotonic buffer containing protease inhibitors and incubating the homogenates on ice for approximately 30 minutes with gentle agitation. After cells were lysed, nuclei were collected by centrifugation (14,000 revolutions/min for 5 minutes). Nuclear proteins were extracted by incubating the nuclear fraction on ice for 30 minutes in hypertonic salt buffer containing protease inhibitors. Nuclear extract supernatant was harvested after centrifugation, then stored at −80° C. Protein was quantified by the BCA microprotein assay (Pierce, Rockford, Ill.).
(§5) The electrophoretic mobility shift assay (EMSA) was performed using double-stranded consensus binding site oligonucleotides for NF-κB and NF-IL6 (C/EBP, CCAAT enhancer binding protein), obtained from Santa Cruz Biotechnology (Santa Cruz, Calif.). Oligonucleotides were end-labeled with [γ-^32P]-labeled adenosine triphosphate (Amersham, Arlington Heights, Ill.) with T4 polynucleotide kinase (Promega, Madison, Wis.), using methods known to those of skill in the art. Binding assays were performed in 10 μl of binding reaction mixture containing 10 μg of nuclear proteins and [γ-^32P]-labeled NF-κB or NF-IL6 oligonucleotides. The binding reaction mixture was incubated at room temperature for 20 minutes, then electrophoresed on 4% non-denaturing polyacrylamide gel electrophoresis (PAGE) gels. Specificity of binding was confirmed by addition of a 10-fold excess of cold oligonucleotide to separate reaction mixtures. A 10-fold excess of cold oligonucleotide containing the AP-1 binding site was added to separate reaction mixtures as an additional control. After PAGE, gels were dried and exposed to Kodak X-omat® film at −70° C. Autoradiograms were quantified by scanning densitometry with a Sun IPC workstation running Bioimage® software (Millipore, Bedford, Mass.).
as §1, §2
(§6) In post-treatment protocols, 30 mice were subjected to CLP. These 30 mice were then randomly divided into 2 groups of 15 mice per group. Group 1 received isovolumetric saline solution intravenously 15 minutes post surgery. Group 2 received glucan phosphate (1 mg/mouse=50 mg/kg, intravenously) 15 minutes postsurgery. […]

In another test the test system is NF-κB. The test is described as follows: EMSA of NF-κB nuclear binding activity in liver and lung after cecal ligation and puncture (CLP). It is filed as in vivo, ICR/HSD mice. The note with it: for decrease of liver NF-κB binding activity / decrease of lung NF-κB binding activity: tissue 3 hours after CLP. How it is done: as §4, §5, §1, §2, §6
Test [2] has as its target macrophage (1→3)-β-D-Glucan receptor. The note with it: cited from earlier work.
A further test relates to IL-6 mRNA. The test is described as follows: RT-PCR of IL-6 mRNA levels in liver and lung after CLP. It is filed as in vivo, ICR/HSD mice. How it is done: (§7) Cytokine reverse transcriptase-polymerase chain reaction (RT-PCR) assays were performed using standard techniques known to those of skill in the art. Upstream and downstream primers for murine TNF-α and IL-6 were used to detect presence of those cytokines. Reduced glyceraldehyde phosphate dehydrogenase (GAPDH) was used as the gene transcript control.
as §1
(§8) In pretreatment protocols, 45 mice were randomly divided into 3 groups of 15 mice per group. Group 1 received isovolumetric saline solution intraperitoneally 1 hour before CLP. Group 2 received glucan phosphate (1 mg/mouse=50 mg/kg, intraperitoneally) 1 hour prior to CLP. Group 3 received scleroglucan (1 mg/mouse=50 mg/kg, intraperitoneally) 1 hour prior to CLP. […]
as §3

The next test deals with TNF-α mRNA. Put plainly: RT-PCR of TNF-α mRNA levels in liver and lung after CLP. It is filed as in vivo, ICR/HSD mice. How it is done:
as §7, §1, §8, §3

Test [3] relates to rat hearts subjected to ischemia/reperfusion. The test is described as follows: myocardial infarct size after LAD occlusion and reperfusion, TTC staining. It is filed as in vivo, Sprague-Dawley rats. The note with it: 40 mg/kg intravenously 5 min after LAD occlusion, 4 hr reperfusion. How it is done: Ischemia/reperfusion protocols were performed using Sprague-Dawley rats (Harlan Sprague-Dawley, Indianapolis, Indiana). Left anterior descending (LAD) coronary artery occlusion was performed by tying off the LAD artery near its origin using a suture. Glucan phosphate was employed in the ischemia reperfusion (I/R) studies.
Sprague-Dawley rats (250-300 g) were treated, with (1→3)-β-D-glucans at a concentration of 40 mg/kg one hour before the hearts were subjected to 45 minutes of occlusion of the left anterior descending (LAD) coronary artery, followed by reperfusion for 4 hours. At the completion of the experimental protocol, the heart was removed, rinsed free of blood, stained with 1% Evans Blue, and sectioned into five slices, followed by incubation in triphenyltetrazolium chloride (TTC) solution. Viable myocardium (risk area) was stained with TTC while the necrotic myocardium was pale white. The area of infarction on both sides of each slice was analyzed by an image analyzer (Alpha Imager 2000), corrected for each slice weight and summed for each left ventricle. The infarct areas were expressed as a percentage of risk area as well as a percentage of left ventricle and the risk areas were expressed as a percentage of left ventricle.
Glucan phosphate (40 mg/kg) was administered to rats via intravenous route 5 min. after the rat hearts were subjected to occlusion of the left afterior descending (LAD) coronary artery, followed by 4 hr. reperfusion. Subsequently, the hearts were harvested and the infarct size/area at risk was determined using TTC staining and image analysis as described previously. FIG. 19 illustrates results, with infarct size expressed as percentage of risk area and risk area expressed as percentage of the left ventricle.

[4] abbreviates: pretreatment 50 mg/kg 1 hour before CLP.
Setting [5] is: pretreatment 50 mg/kg, 3 hours after CLP.
[6] abbreviates: posttreatment 50 mg/kg intravenously 15 minutes post surgery.
The mark [7] stands for this setting: posttreatment 50 mg/kg intravenously 15 minutes after CLP.

scleroglucan: in test [1] (50 mg/kg intraperitoneally 1 hour before CLP), the “effect on long-term survival” value is “increased long-term survival”. Also, in the test on NF-IL6 (setting [4]), the “decrease of liver NF-IL6 binding activity” value turned out to be 38%. Also, the “effect on lung NF-IL6 nuclear binding activity” value in the test on NF-IL6 (setting [5]) was “inhibited”. For the same substance, the “decrease of liver NF-κB binding activity” value in the test with NF-κB (setting [4]) was 54%. Also, the “effect on lung NF-κB nuclear binding activity” value in the test with NF-κB (setting [5]) is given as “inhibited”. For the same substance, the Kd in test [2] (high affinity, read-out: affinity for the (1→3)-β-D-glucan receptor) was 0.011 µM.

For the substance glucan phosphate, in the test on IL-6 mRNA (setting [6]), the “effect on hepatic IL-6 mRNA levels” value was “not altered” and the “suppression of lung IL-6 mRNA levels relative to CLP controls” value is reported as 30%. Further, in the test with IL-6 mRNA (setting [5]), the “suppression of hepatic IL-6 mRNA levels relative to CLP controls” value worked out at 49%. In the test with TNF-α mRNA (setting [6]), the “suppression of hepatic TNF-α mRNA levels relative to CLP controls” value was determined as 31% and the “suppression of lung TNF-α mRNA levels relative to CLP controls” value was determined as 28%. Also, the “suppression of hepatic TNF-α mRNA levels relative to CLP controls” value in the test on TNF-α mRNA (setting [5]) was 44%. In addition, the long-term survival rate in test [1] (single posttreatment injection 50 mg/kg intravenously 15 minutes after CLP) came to 65%. The substance also yielded a long-term survival rate in test [1] (single prophylactic injection 50 mg/kg intraperitoneally 1 hour before CLP) of 65%. Moreover, in the test with NF-IL6 (setting [7]), the “decrease of liver NF-IL6 binding activity” value stood at 95% and the “decrease of lung NF-IL6 binding activity” value was determined as 63%. In addition, in the test on NF-IL6 (setting [4]), the “decrease of liver NF-IL6 binding activity” value turned out to be 77% and the “decrease of lung NF-IL6 binding activity” value is on record as 68%. Besides, in test [3], the “reduction of infarct size/area at risk compared to control IR group” value stood at 53%. Further, the “infarct size/area at risk” value in test [3] (mean±SEM, control IR 51.03±3.69%) amounted to 24.39±2.00%. Besides, in the test on NF-κB (setting [7]), the “decrease of liver NF-κB binding activity” value came to 42% and the “decrease of lung NF-κB binding activity” value is listed as 54%. In the test on NF-κB (setting [4]), the “decrease of liver NF-κB binding activity” value is given as 58% and the “decrease of lung NF-κB binding activity” value is on record as 81%. The Kd in test [2] (low affinity, read-out: affinity for the macrophage (1→3)-β-D-glucan receptor) was 24 µM.
